Measured values published in patent publication US20230210732A1, “REDUCTIVE TEETH WHITENING UTILIZING SALTS OF DITHIONITE” (CAO Group, Inc., priority 2022, published 2023).

Assay: whitening of stained extracted teeth, color scored against a classical VITA shade guide
Settings: for tooth whitening (color vs classical VITA shade guide): teeth left in solution overnight, all teeth
From the text: To evaluate these solutions, a collection of extracted teeth was examined and selected for dark color stains ranging from light yellow to brown. These teeth were then categorized and scored for color by comparing to a classical VITA shade guide. Then half of the teeth were then placed in a fresh solution of 15% sodium dithionite in water with unadjusted pH. The second half were placed in the solution adjusted to above pH 10. All teeth became whiter after remaining in solution overnight, especially light yellow to yellow stained teeth.

In the case of `O=S([O-])S(=O)[O-].[Na+].[Na+]` [sodium dithionite], the “tooth whitening of brown stained teeth” value (15% sodium dithionite in water (unadjusted pH or above pH 10), overnight, brown teeth, less effect than light yellow to yellow teeth) is reported as “whitened significantly”, the “tooth whitening (color vs classical VITA shade guide)” value (15% sodium dithionite solution adjusted to above pH 10) is reported as “became whiter” and the “tooth whitening (color vs classical VITA shade guide)” value (fresh solution of 15% sodium dithionite in water, unadjusted pH) is reported as “became whiter”.
